Experimental data taken from ChEMBL document CHEMBL1697821, “Development of a phospholipidosis database and predictive quantitative structure-activity relationship (QSAR) models” (Toxicol Mech Methods, 2008).
*1 amine or outer side, *2 acyl side, *3 side chain or, on linkers, in order; H or OH if unused. Where a SMILES comes first, the peptide text is derived from it. Bridges are numbered along the chain shown (N, C = ends). [ ]: non-standard residue; d: D form. The star is where a group is joined. X1 = NC1=N[C@@H]([C@H](N[*:1])C(=O)[*:2])C[C@H](O)N1; ΔAla(Z-3-ureido) = NC(=O)N/C=C(\N)C(=O)O; β3hOrn = NCCC[C@H](N)CC(=O)*; Dap = NC[C@H](N)C(=O)O

system: Phospholipidosis; assay: Literature-mined public compounds from Kruhlak et al phospholipidosis modelling dataset

Compound | Phospholipidosis
CS(=O)(=O)c1ccc([C@@H](O)[C@@H](CO)NC(=O)C(Cl)Cl)cc1 [THIAMPHENICOL] | Negative: based on the absence of positive reported data from WMDD
CCCC(C)C1(CC)C(=O)NC(=S)NC1=O (stereo unspecified) [THIOPENTAL] | Negative: based on the absence of positive reported data from WMDD
CC(=O)OCCN1CCN(CCCN2c3ccccc3Sc3ccc(Cl)cc32)CC1 [THIOPROPAZATE] | Negative: based on the absence of positive reported data from WMDD
CSc1ccc2c(c1)N(CCC1CCCCN1C)c1ccccc1S2 (stereo unspecified) [THIORIDAZINE] | Positive: weak inducer based on presence of foamy macrophages and cytoplasmic vacuolations
CN1CCN(CC/C=C2/c3ccccc3Sc3ccc(S(=O)(=O)N(C)C)cc32)CC1 [THIOTHIXENE] | Negative: based on the absence of positive reported data from WMDD
O=c1cc[nH]c(=S)[nH]1 [THIOURACIL] | Negative: based on the absence of positive reported data from WMDD
Cc1ccsc1C(=CCCN1CCC[C@@H](C(=O)O)C1)c1sccc1C [TIAGABINE] | Negative: based on the absence of positive reported data from WMDD
O=C(Cn1c(=O)sc2ccc(Cl)cc21)N1CCN(CCO)CC1 [TIARAMIDE] | Negative: based on the absence of positive reported data from WMDD
Clc1ccccc1CN1CCc2sccc2C1 [TICLOPIDINE] | Negative: based on the absence of positive reported data from WMDD
CCN(CC)CCOc1ccc2c(c1)C(=O)c1cc(OCCN(CC)CC)ccc1-2 [TILORONE] | Positive: strong inducer confirmed by electron microscopy
O=C(O)C1CSCN1 (stereo unspecified) [TIMONACIC] | Negative: based on the absence of positive reported data from WMDD
CC(S)C(=O)NCC(=O)O (stereo unspecified) [TIOPRONIN] | Negative: based on the absence of positive reported data from WMDD
Clc1ccc2nsnc2c1NC1=NCCN1 [TIZANIDINE] | Negative: based on the absence of positive reported data from WMDD
NC[C@H]1O[C@H](O[C@H]2[C@H](O)[C@@H](O[C@H]3O[C@H](CO)[C@@H](O)[C@H](N)[C@H]3O)[C@H](N)C[C@@H]2N)[C@H](N)C[C@@H]1O [TOBRAMYCIN] | Positive: strong inducer confirmed by electron microscopy
Cc1ccc(C(=O)c2cc(O)c(O)c([N+](=O)[O-])c2)cc1 [TOLCAPONE] | Negative: based on the absence of positive reported data from WMDD
Cc1ccc(C(=O)C(C)CN2CCCCC2)cc1 (stereo unspecified) [TOLPERISONE] | Negative: based on the absence of positive reported data from WMDD
CN(C)CCOc1ccc(/C(=C(/CCCl)c2ccccc2)c2ccccc2)cc1 [TOREMIFENE] | Negative: based on the absence of positive reported data from WMDD
COc1cccc(C2(O)CCCCC2CN(C)C)c1 (stereo unspecified) [TRAMADOL] | Negative: based on the absence of positive reported data from WMDD
CCOC(=O)[C@H](CCc1ccccc1)N[C@@H](C)C(=O)N1[C@H](C(=O)O)C[C@H]2CCCC[C@@H]21 [TRANDOLAPRIL] | Negative: based on the absence of positive reported data from WMDD
OCC(Br)(Br)Br [TRIBROMOETHANOL] | Negative: based on the absence of positive reported data from WMDD
NS(=O)(=O)c1cc2c(cc1Cl)NC(C(Cl)Cl)NS2(=O)=O (stereo unspecified) [TRICHLORMETHIAZIDE] | Negative: based on the absence of positive reported data from WMDD
O=C(CCCN1CCC(O)(c2cccc(C(F)(F)F)c2)CC1)c1ccc(F)cc1 [TRIFLUPERIDOL] | Negative: based on the absence of positive reported data from WMDD
CCC(COC(=O)c1cc(OC)c(OC)c(OC)c1)(c1ccccc1)N(C)C (stereo unspecified) [TRIMEBUTINE] | Negative: based on the absence of positive reported data from WMDD

Compound | Phospholipidosis
CN1C(=O)OC(C)(C)C1=O [TRIMETHADIONE] | Negative: based on the absence of positive reported data from WMDD
COc1cc(Cc2cnc(N)nc2N)cc(OC)c1OC [TRIMETHOPRIM] | Negative: based on the absence of positive reported data from WMDD
COc1cc(C(=O)N2CCOCC2)cc(OC)c1OC [TRIMETOZINE] | Negative: based on the absence of positive reported data from WMDD
CC(CN(C)C)CN1c2ccccc2CCc2ccccc21 (stereo unspecified) [TRIMIPRAMINE] | Positive: weak inducer based on presence of foamy macrophages and cytoplasmic vacuolations
CCN(CC)CCOc1ccc(C(O)(Cc2ccc(Cl)cc2)c2ccc(C)cc2)cc1 (stereo unspecified) [TRIPARANOL] | Positive: strong inducer confirmed by electron microscopy
CN(C)CCN(Cc1ccccc1)c1ccccn1 [TRIPELENNAMINE] | Positive: weak inducer based on presence of foamy macrophages and cytoplasmic vacuolations
Cc1ccc(/C(=C\CN2CCCC2)c2ccccn2)cc1 [TRIPROLIDINE] | Negative: based on the absence of positive reported data from WMDD
Cc1c(C)c2c(c(C)c1O)CCC(C)(COc1ccc(CC3SC(=O)NC3=O)cc1)O2 (stereo unspecified) [TROGLITAZONE] | Negative: based on the absence of positive reported data from WMDD
CCCC(CCC)C(=O)O [VALPROIC ACID] | Negative: confirmed by electron microscopy
CCCC(CCC)C(N)=O [VALPROMIDE] | Negative: based on the absence of positive reported data from WMDD
COc1ccc(C(CN(C)C)C2(O)CCCCC2)cc1 (stereo unspecified) [VENLAFAXINE] | Negative: based on the absence of positive reported data from WMDD
CC[C@]1(O)C[C@@H]2CN(CCc3c([nH]c4ccccc34)[C@@](C(=O)OC)(c3cc4c(cc3OC)N(C)[C@H]3[C@@](O)(C(=O)OC)[C@H](OC(C)=O)[C@]5(CC)C=CCN6CC[C@]43[C@@H]65)C2)C1 [VINBLASTINE] | Negative: confirmed by electron microscopy
CC[C@]1(O)C[C@@H]2CN(CCc3c([nH]c4ccccc34)[C@@](C(=O)OC)(c3cc4c(cc3OC)N(C)[C@H]3[C@@](O)(C(N)=O)[C@H](O)[C@]5(CC)C=CCN6CC[C@]43[C@@H]65)C2)C1 [VINDESINE] | Negative: based on the absence of positive reported data from WMDD
NCCC[C@H](N)CC(=O)N[C@H]1CNC(=O)[C@H]([C@H]2C[C@H](O)NC(N)=N2)NC(=O)/C(=C/NC(N)=O)NC(=O)[C@H](CO)NC(=O)[C@H](CO)NC1=O [VIOMYCIN] (β3hOrn-[Dap]SS[ΔAla(Z-3-ureido)][X1]; lactam 1-C) | Negative: based on the absence of positive reported data from WMDD
CC(=O)CC(c1ccccc1)c1c(O)c2ccccc2oc1=O (stereo unspecified) [WARFARIN] | Negative: based on the absence of positive reported data from WMDD
O=C[C@H](O)[C@@H](O)[C@H](O)CO [XYLOSE] | Negative: based on the absence of positive reported data from WMDD
C[C@H]1CCC[C@H](O)CCCCCc2cc(O)cc(O)c2C(=O)O1 [ZERANOL] | Negative: based on the absence of positive reported data from WMDD
Cc1cn([C@H]2C[C@H](N=[N+]=[N-])[C@@H](CO)O2)c(=O)[nH]c1=O [ZIDOVUDINE] | Negative: confirmed by electron microscopy
CN(C)C/C=C(/c1ccc(Br)cc1)c1cccnc1 [ZIMELDINE] | Positive: strong inducer confirmed by electron microscopy
O=C1Cc2cc(CCN3CCN(c4nsc5ccccc45)CC3)c(Cl)cc2N1 [ZIPRASIDONE] | Negative: based on the absence of positive reported data from WMDD
COc1cccc2c1C(=O)c1c(O)c3c(c(O)c1C2=O)C[C@@](O)(/C(C)=N/NC(=O)c1ccccc1)C[C@@H]3O[C@H]1C[C@H](N)[C@H](O)[C@H](C)O1 [ZORUBICIN] | Negative: based on the absence of positive reported data from WMDD
IVERMECTIN | Negative: based on the absence of positive reported data from WMDD
POLYSORBATE 80 | Negative: based on the absence of positive reported data from WMDD
